Some test systems named below: 786-0; CAKI-1; HCC 2998; HCT-15; IGROV-1; K562; MOLT-4; NCI-H226; NCI-H23; NCI-H460; NCI-H522; OVCAR-3; OVCAR-5; OVCAR-8; SF-295; SNB-19; SNB-75; SR; TK-10; U-251.
Common to all, as to experiment: inhibition of tumour cell growth, NCI panel, 48 h

Molecules are shown by their SMILES.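 In this assay, cells in 96-well plates receive the compound at five concentrations for 48 hours. Endpoints are linearly interpolated between the surrounding concentrations. Abbreviation: GI50, concentration required for 50% inhibition of growth.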 Activity calls are given as the source filed them. Cut-off read from the data, not from the text of the source: active = GI50 up to about 1.1 µM and inactive = higher.

As for `COc1ccc(C2=Nc3ccccc3SC(C)C2)cc1OC` (stereo not given), the GI50 in the assay on 786-0 is 16.3 µM (inactive); with CAKI-1, 19.6 µM (inactive); in the assay on HCC 2998, 18.6 µM (inactive); in the assay with HCT-15, 17.8 µM; with IGROV-1, 14.6 µM (inactive); with K562 it was 25.5 µM (inactive). For the same compound, the GI50 in the assay with MOLT-4 was 14.5 µM (inactive); in the assay on NCI-H226 it was 20.4 µM (inactive); with NCI-H23 it was 17.7 µM (inactive); in the assay on NCI-H460, 19.2 µM (inactive); in the assay on NCI-H522, 17.4 µM (inactive); with OVCAR-3, 16.6 µM (inactive). The GI50 in the assay with OVCAR-5 was 24.7 µM (inactive); in the assay with OVCAR-8 it was 22.8 µM (inactive); with SF-295, 21 µM (inactive); in the assay on SNB-19 it was 20.2 µM (inactive); in the assay on SNB-75, 14.3 µM (inactive); in the assay on SR, 20.8 µM (inactive). The GI50 was 29.8 µM (inactive) in the assay with TK-10 and 17.2 µM (inactive) in the assay on U-251.

On to `O=C1OC2(C(F)(F)F)Oc3ccccc3CN2C12CCCCC2` (stereo not given), for which the GI50 was 35.3 µM (inactive) in the assay with 786-0; 18.7 µM (inactive) in the assay on CAKI-1; 33.1 µM (inactive) in the assay on HCC 2998; 28.2 µM with HCT-15; 48.4 µM (inactive) with IGROV-1; 20.4 µM (inactive) with K562. The GI50 in the assay with MOLT-4 was 18.1 µM (inactive); with NCI-H226, 27.4 µM (inactive); in the assay on NCI-H23 it was 25.4 µM (inactive); in the assay with NCI-H460, 22.5 µM (inactive); in the assay with NCI-H522 it was 24.3 µM (inactive); in the assay on OVCAR-3, 28.6 µM (inactive). Also, the GI50 is 22 µM (inactive) in the assay with OVCAR-5; 36.3 µM (inactive) with OVCAR-8; 21.1 µM (inactive) with SF-295; 36.3 µM (inactive) with SNB-19; 16 µM (inactive) in the assay on SNB-75; 22.8 µM (inactive) in the assay with SR. The GI50 in the assay with TK-10 was 46.2 µM (inactive); in the assay on U-251 it was 26 µM (inactive).

On to `C#C[C@]1(O)CC[C@H]2[C@@H]3CCC4=C/C(=N\OCCN5CCCCC5)CC[C@]4(C)[C@H]3CC[C@@]21C`, for which the GI50 in the assay with 786-0 was 3.63 µM (inactive); in the assay on CAKI-1, 6.21 µM (inactive); in the assay with HCC 2998, 12.8 µM (inactive); in the assay with HCT-15, 7.31 µM; with IGROV-1, 7.18 µM (inactive); in the assay with K562, 1.65 µM (inactive). For the same compound, the GI50 is 3.9 µM (inactive) with MOLT-4; 17.2 µM (inactive) in the assay with NCI-H226; 3.83 µM (inactive) in the assay with NCI-H23; 6.78 µM (inactive) in the assay with NCI-H460; 2.47 µM (inactive) with NCI-H522; 5.15 µM (inactive) with OVCAR-3. The GI50 with OVCAR-5 is 13.5 µM (inactive); in the assay on OVCAR-8, 8.02 µM (inactive); in the assay on SF-295, 3.56 µM (inactive); with SNB-19, 6.9 µM (inactive); with SNB-75, 4.3 µM (inactive); in the assay with SR, 1.48 µM (inactive). The GI50 with TK-10 was 7.28 µM (inactive); in the assay with U-251 it was 9.68 µM (inactive).

On to `O=c1c2c(F)c(F)c(F)c(F)c2sc2nccn12`, for which the GI50 in the assay on 786-0 was 15.2 µM (inactive); in the assay on CAKI-1, 19 µM (inactive); with HCC 2998, 17.5 µM (inactive); in the assay with HCT-15 it was 12.4 µM; in the assay with IGROV-1, 17.4 µM (inactive); in the assay with K562 it was 6.55 µM (inactive). Further, the GI50 is 3.01 µM (inactive) in the assay on MOLT-4; 25.2 µM (inactive) in the assay on NCI-H226; 15.5 µM (inactive) in the assay on NCI-H23; 11.2 µM (inactive) in the assay on NCI-H460; 18.9 µM (inactive) in the assay on NCI-H522; 14.4 µM (inactive) in the assay on OVCAR-3. Further, the GI50 is 20.4 µM (inactive) in the assay with OVCAR-5; 19.2 µM (inactive) in the assay with OVCAR-8; 17.9 µM (inactive) in the assay on SF-295; 19.8 µM (inactive) with SNB-19; 22.5 µM (inactive) in the assay with SNB-75; 3.27 µM (inactive) in the assay with SR. Further, the values for the GI50 in the assay with TK-10 and with U-251 were 18.4 µM (inactive) and 14.9 µM (inactive), respectively.

Turning to `CC1CN=C(Nc2ccc(F)c(Cl)c2)S1` (stereo not given), the GI50 is > 100 µM (inactive) in the assay on 786-0; 53.6 µM (inactive) in the assay with CAKI-1; > 100 µM (inactive) in the assay on HCC 2998; 83.4 µM with HCT-15; 81.7 µM (inactive) with IGROV-1; 62.1 µM (inactive) in the assay on K562. Besides, the GI50 in the assay on MOLT-4 was > 10 µM (inactive); in the assay on NCI-H226, > 100 µM (inactive); with NCI-H23 it was 51.5 µM (inactive); in the assay on NCI-H460, > 100 µM (inactive); with NCI-H522 it was 58.2 µM (inactive); in the assay with OVCAR-3 it was > 100 µM (inactive). Besides, the GI50 was > 100 µM (inactive) with OVCAR-5; > 100 µM (inactive) in the assay on OVCAR-8; > 100 µM (inactive) in the assay on SF-295; > 100 µM (inactive) with SNB-19; > 100 µM (inactive) in the assay on SNB-75; 31.5 µM (inactive) in the assay on SR. Besides, the GI50 in the assay with TK-10 is > 100 µM (inactive); with U-251, 95.3 µM (inactive).

On to `CC[S+]1C2=C(CC(C)(C)CC2=O)[N-]c2ccccc21` (stereo not given), for which the GI50 in the assay with 786-0 is > 100 µM (inactive); in the assay on CAKI-1, > 100 µM (inactive); in the assay on HCC 2998, > 100 µM (inactive); with HCT-15 it was above 100 µM; with IGROV-1 it was > 100 µM (inactive); with K562, > 100 µM (inactive). The GI50 in the assay on MOLT-4, in the assay on NCI-H226, with NCI-H23, with NCI-H460, in the assay with NCI-H522 and in the assay with OVCAR-3 was > 100 µM (inactive) throughout. In addition, the GI50 in the assay on OVCAR-5 was > 100 µM (inactive); in the assay with OVCAR-8, > 100 µM (inactive); in the assay on SF-295 it was 31.6 µM (inactive); in the assay on SNB-19, > 100 µM (inactive); with SNB-75, > 100 µM (inactive); in the assay on SR it was > 100 µM (inactive). Moreover, the GI50 with TK-10 and in the assay on U-251 was > 100 µM (inactive) each time.

Regarding `NS(=O)(=O)c1cc(C(=O)O)c(Cl)c([N+](=O)[O-])c1Cl`, the GI50 is > 100 µM (inactive) in the assay with 786-0; > 100 µM (inactive) in the assay with CAKI-1; > 100 µM (inactive) in the assay with HCC 2998; above 100 µM in the assay on HCT-15; > 100 µM (inactive) in the assay with IGROV-1; > 100 µM (inactive) with K562. Besides, the GI50 in the assay with MOLT-4, in the assay on NCI-H226, with NCI-H23, in the assay with NCI-H460, in the assay on NCI-H522 and in the assay with OVCAR-3 was > 100 µM (inactive) each time. The GI50 in the assay on OVCAR-5, in the assay with OVCAR-8, in the assay on SF-295, with SNB-19, with SNB-75 and in the assay on SR was > 100 µM (inactive) in each case. The GI50 in the assay on TK-10 and with U-251 was > 100 µM (inactive) in each case.

In the case of `O=c1c2cc(Br)ccc2nc(CNc2ccccc2)n1-c1ccccc1`, the GI50 in the assay with 786-0 is 14.6 µM (inactive); with CAKI-1, 3.02 µM (inactive); in the assay with HCC 2998, 19.5 µM (inactive); in the assay on HCT-15, 16.7 µM; in the assay with IGROV-1, 15.8 µM (inactive); in the assay on K562 it was 14.6 µM (inactive). Moreover, the GI50 in the assay on MOLT-4 was 9.59 µM (inactive); with NCI-H226, 18.5 µM (inactive); in the assay with NCI-H23, 13.6 µM (inactive); with NCI-H460, 17.4 µM (inactive); in the assay with NCI-H522, 6.84 µM (inactive); in the assay with OVCAR-3 it was 21.8 µM (inactive). For the same compound, the GI50 was 52.8 µM (inactive) in the assay with OVCAR-5; 23.3 µM (inactive) in the assay on OVCAR-8; 24.2 µM (inactive) in the assay with SF-295; 26.9 µM (inactive) with SNB-19; 20.5 µM (inactive) in the assay with SNB-75; 6.52 µM (inactive) in the assay on SR. Moreover, the GI50 with TK-10 was 21.7 µM (inactive); in the assay on U-251, 15.2 µM (inactive).

Consider `CCOC1=NC(C(F)(F)F)(C(F)(F)F)N=C(/N=C(/N)N(C)C(C(C)C)P(=O)(OC(C)C)OC(C)C)O1` (stereo not given), for which the GI50 is > 100 µM (inactive) in the assay on 786-0; > 100 µM (inactive) with CAKI-1; > 100 µM (inactive) with HCC 2998; 58.7 µM in the assay on HCT-15; 69.8 µM (inactive) in the assay with IGROV-1; 34.7 µM (inactive) in the assay on K562. For the same compound, the GI50 in the assay with MOLT-4 was 20.1 µM (inactive); in the assay on NCI-H226, > 100 µM (inactive); in the assay with NCI-H23 it was 95.3 µM (inactive); with NCI-H460 it was > 100 µM (inactive); with NCI-H522, 27.9 µM (inactive); in the assay on OVCAR-3, 67.6 µM (inactive). Further, the GI50 in the assay with OVCAR-5 was > 100 µM (inactive); in the assay with OVCAR-8, 48.5 µM (inactive); in the assay on SF-295 it was 83.8 µM (inactive); in the assay on SNB-19 it was > 100 µM (inactive); in the assay with SNB-75 it was 44.8 µM (inactive); with SR, 55.3 µM (inactive). Further, the figures for the GI50 in the assay with TK-10 and in the assay with U-251 were > 100 µM (inactive) and 64.9 µM (inactive), respectively.

Regarding `C=C(C)C(O)C(O)C[C@@H](C)C1CC[C@]23C[C@]12CCC1[C@@]2(C)CCC(OC(C)=O)C(C)(C)C2CC(OC2OC(CO)C(O)C(O)C2O)[C@]13C` (stereo not given in full), the GI50 is 19.1 µM (inactive) in the assay on 786-0; > 100 µM (inactive) with CAKI-1; 15.7 µM (inactive) in the assay with HCC 2998; 40.9 µM in the assay on HCT-15; 15.3 µM (inactive) with IGROV-1; 20.1 µM (inactive) in the assay with K562. Moreover, the GI50 with MOLT-4 was 18.5 µM (inactive); in the assay with NCI-H226, 20.6 µM (inactive); in the assay with NCI-H23 it was 19.2 µM (inactive); in the assay on NCI-H460, 17.9 µM (inactive); in the assay on NCI-H522, 17 µM (inactive); in the assay on OVCAR-3, 17.6 µM (inactive). Further, the GI50 was 20.9 µM (inactive) with OVCAR-5; 19.5 µM (inactive) with OVCAR-8; 18.9 µM (inactive) with SF-295; 20 µM (inactive) with SNB-19; 19.6 µM (inactive) in the assay with SNB-75; 18.7 µM (inactive) in the assay with SR. Besides, the GI50 in the assay on TK-10 is 20.8 µM (inactive); in the assay with U-251, 15.7 µM (inactive).

The values above are taken from ChEMBL document CHEMBL1201862, “PubChem BioAssay data set” (2004).
